Tested on: EBC-1 xenografts
Assay: In vivo testing of EpCAM ADCs with paclitaxel, EBC-1 xenografts (Example 17)
Parameters: species or system female nude mice
Details: Paclitaxel Alone
Procedure: EBC-1 cells were cultured at 37° C. (atmosphere of 5% CO2) in DMEM (Gibco 11965-084) supplemented with 10% FBS (HI-FBS #134K19, Tet-free). Treatment with 0.25% Trypsin (Gibco 25200-056) was used for sub-culturing. To establish EBC-1 xenografts, cells were harvested and re-suspended in a 1:1 v/v mixture of phosphate buffered saline and Matrigel. A total of 5×10^6 cells in a volume of 150 μL were injected subcutaneously in the flanks of female nude mice (Charles River, USA). Tumor growth was monitored regularly post cell inoculation and animals were randomized into treatment groups (n=8) with a mean tumor volume of about 210 mm^3. EpCAM-DANAPA-L11C-P25 ADC, 3207-DANAPA-L11C-P25 isotype control ADC, and EpCAM-DANAPA CysMab control antibody were all dosed in combination with paclitaxel (LC Laboratories, Woburn, MA, Cat #: P-9600) as indicated in FIG. 13. The ADCs and CysMab antibody were administered intravenously (i.v.) once at the start of treatment at 30 mg/kg. Paclitaxel was administered i.v. once at 12.5 mg/kg, 24 h after the ADC or CysMab dose. All reagents were dosed at 10 mL/kg based on the individual mouse body weight. The ADCs and CysMab were formulated at 3 mg/mL in PBS on the day of treatment. Paclitaxel was reconstituted in 50% Ethanol+50% Cremophor EL (Kolliphor EL) at a concentration of 6 mg/mL, and then further diluted to 1.25 mg/mL with sterile saline prior to administration on the day of treatment.
Tumor volume data were analyzed for statistical difference relative to the EpCAM-DANAPA-L 11C-P25 ADC+ paclitaxel combination group. Unpaired two-tailed T-tests were used to make comparisons between groups.
As a measure of efficacy, %T/C values were calculated according to the formula: […]
Tumor regression was calculated according to the formula: […]
Δtumor volumes represent mean tumor volumes on the measurement day minus the mean tumor volume at the start of treatment. The Δtumor volume control value specified above refers to mean tumor volume changes in the vehicle group.

CC(=O)O[C@H]1C(=O)[C@@]2(C)[C@H]([C@H](OC(=O)c3ccccc3)[C@]3(O)C[C@H](OC(=O)[C@H](O)[C@@H](NC(=O)c4ccccc4)c4ccccc4)C(C)=C1C3(C)C)[C@]1(OC(C)=O)CO[C@@H]1C[C@@H]2O [Paclitaxel, paclitaxel]
% T/C (Day of Evaluation) (Day 10): 34%
ΔTumor volume (mm^3 ± SEM) (Day of Evaluation) (Day 10): 510.8 ± 158.5 mm^3
Significance vs EpCAM-DANAPA-L11C-P25 ADC on Day 9 (Day of Evaluation) (Day 10, unpaired two-tailed T-test vs EpCAM-DANAPA-L11C-P25 ADC + paclitaxel group): P = 0.0014
Complete Responders (Day of Evaluation) (Day 32, tumors regressed to 0 mm^3): 0/8
